Here are results for 7 compounds from patent EP2271651B1, “ISOTHERMAL PROCESS FOR PHOSPHOROMONOCHLORIDITE SYNTHESIS” (Dow Global Technologies LLC, priority 2008, dated 2009).

Like-named read-outs stand apart in the source and are kept apart here.

Data set [1] in a line: Solubility of the aromatic diol in organic solvent (equilibrium solubility method). It is filed as physicochemical. To be noted: based on the weight of the solution. The source says:
The solubility of the aromatic diol in the organic solvent can be measured by using known procedures. For example, the solubility of the aromatic diol in the organic solvent at a specific temperature can be determined by an equilibrium solubility method, which employs a saturated solution of the aromatic diol, obtained by stirring an excess amount of the aromatic diol in the organic solvent at the specific temperature for a sufficient period of time until equilibrium is achieved. Thereafter, the resulting liquid phase saturated solution, the resulting solid phase, or both liquid and solid phases are analyzed by any conventional analytical method to arrive at the solubility of the aromatic diol in the organic solvent.
In this first embodiment, generally, the aromatic diol has a low solubility in the first organic solvent. […] Accordingly, this embodiment generally requires a) a large quantity of the first organic solvent to solubilize essentially all of the aromatic diol, and/or b) preparation and maintenance of the feed solution at an elevated temperature to increase and maintain solubility of the diol in the feed solution. […]

For data set [2] the following is noted: cited from earlier work; for HCl solubility: total pressure of 760 mm Hg (101 kPa).

In the case of `Oc1ccccc1-c1ccccc1O` [2,2'-biphenol], the solubility in toluene in data set [1] (at 19°C) was found to be 2.7 percent by weight; in data set [1] (at 40°C), 7.3 percent by weight.

Take `Clc1ccccc1` [Chlorobenzene]: the HCl solubility in data set [2] (At 20°C) is reported as 0.033 Mol/mol organic solvent.

On to `C1CCOC1` [Tetrahydrofuran], for which the “hydrogen chloride absorbed/dissolved by one mole of solvent” value in data set [2] (at 10°C and a total pressure of 760 mm Hg (101 kPa)) is 1.38 mol.

Turning to `Cc1cccc(C)c1` [m-Xylene], the HCl solubility in data set [2] (At 20°C) is reported as 0.071 Mol/mol organic solvent.

Take `CCCCCCCCCC` [n-Decane]: the HCl solubility in data set [2] (At 10°C) is recorded as 0.028 Mol/mol organic solvent.

On to `CCCCCCC` [n-Heptane], for which the HCl solubility in data set [2] (At 10°C) is recorded as 0.02 Mol/mol organic solvent; in data set [2] (At 20°C) it was 0.015 Mol/mol organic solvent.

For `Cc1ccc(C)cc1` [p-Xylene], the results for the HCl solubility in data set [2] (At 10°C) and in data set [2] (At 20°C) were 0.08 Mol/mol organic solvent and 0.064 Mol/mol organic solvent, respectively.
